Measured values reported in PubChem BioAssay (NCI).
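Results reflect a 48-hour exposure of cells in 96-well plates to compound at five concentrations. Abbreviation: GI50, concentration required for 50% inhibition of growth. TGI marks complete inhibition of growth.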

Legend:
Assay in all cases: inhibition of tumour cell growth, NCI panel, 48 h
786-0 renal = system: 786-0 renal
A498 renal = system: A498 renal
A549 NSCLC = system: A549 NSCLC
ACHN renal = system: ACHN renal
BT-549 breast = system: BT-549 breast
CAKI-1 renal = system: CAKI-1 renal
CCRF-CEM leukemia = system: CCRF-CEM leukemia
COLO 205 colon = system: COLO 205 colon
DU-145 prostate = system: DU-145 prostate
EKVX NSCLC = system: EKVX NSCLC
HCT-116 colon = system: HCT-116 colon
HCT-15 colon = system: HCT-15 colon
HL-60(TB) leukemia = system: HL-60(TB) leukemia
HOP-92 NSCLC = system: HOP-92 NSCLC
HS 578T breast = system: HS 578T breast
IGROV1 ovarian = system: IGROV1 ovarian
K-562 leukemia = system: K-562 leukemia
KM12 colon = system: KM12 colon
LOX IMVI melanoma = system: LOX IMVI melanoma
M14 melanoma = system: M14 melanoma
MALME-3M melanoma = system: MALME-3M melanoma
MCF7 breast = system: MCF7 breast
MDA-MB-435 = system: MDA-MB-435
MOLT-4 leukemia = system: MOLT-4 leukemia
NCI-H226 lung = system: NCI-H226 lung
NCI-H23 lung = system: NCI-H23 lung
NCI-H460 lung = system: NCI-H460 lung
NCI-H522 lung = system: NCI-H522 lung
NCI/ADR-RES ovarian = system: NCI/ADR-RES ovarian
PC-3 prostate = system: PC-3 prostate
RPMI-8226 leukemia = system: RPMI-8226 leukemia
SF-268 CNS = system: SF-268 CNS
SF-295 CNS = system: SF-295 CNS
SF-539 CNS = system: SF-539 CNS
SK-MEL-2 melanoma = system: SK-MEL-2 melanoma
SK-MEL-28 melanoma = system: SK-MEL-28 melanoma
SK-MEL-5 melanoma = system: SK-MEL-5 melanoma
SK-OV-3 ovarian = system: SK-OV-3 ovarian
SN12C renal = system: SN12C renal
SNB-19 CNS = system: SNB-19 CNS
SNB-75 CNS = system: SNB-75 CNS
SR leukemia = system: SR leukemia
T-47D breast = system: T-47D breast
TK-10 renal = system: TK-10 renal
U251 CNS = system: U251 CNS
UACC-257 melanoma = system: UACC-257 melanoma
UACC-62 melanoma = system: UACC-62 melanoma
UO-31 renal = system: UO-31 renal

Q: How did the GI50 (786-0 renal) turn out when CCOC(=O)c1sc(-c2ccc(OS(=O)(=O)c3cccs3)c(C=O)c2)nc1C was run?
A: Its GI50 is 1860 nM.

Q: What about the TGI (786-0 renal) of the same molecule?
A: Its TGI is 4540 nM.

Q: And the GI50 (A498 renal)?
A: Its GI50 is 1580 nM.

Q: And the TGI (A498 renal)?
A: Its TGI is 3180 nM.

Q: What about the GI50 (A549 NSCLC) of the same molecule?
A: The GI50 was 2300 nM.

Q: And the TGI (A549 NSCLC)?
A: The TGI was 6720 nM.

Q: What about the GI50 (ACHN renal) of the same molecule?
A: Its GI50 is 2060 nM.

Q: What about the TGI (ACHN renal) of the same molecule?
A: The TGI was 5880 nM.

Q: What about the GI50 (BT-549 breast) of the same molecule?
A: Its GI50 is 1680 nM.

Q: And the TGI (BT-549 breast)?
A: The TGI was 3190 nM.

Q: And the GI50 (CAKI-1 renal)?
A: Its GI50 is 1310 nM.

Q: And the TGI (CAKI-1 renal)?
A: The TGI was 3940 nM.

Q: And the GI50 (CCRF-CEM leukemia)?
A: The GI50 was 2160 nM.

Q: And the TGI (CCRF-CEM leukemia)?
A: Its TGI is 5380 nM.

Q: What about the GI50 (COLO 205 colon) of the same molecule?
A: The GI50 was 2010 nM.

Q: What about the TGI (COLO 205 colon) of the same molecule?
A: Its TGI is 3900 nM.

Q: What about the GI50 (DU-145 prostate) of the same molecule?
A: The GI50 was 2430 nM.

Q: And the TGI (DU-145 prostate)?
A: The TGI was 6780 nM.

Q: And the GI50 (EKVX NSCLC)?
A: The GI50 was 1880 nM.

Q: And the TGI (EKVX NSCLC)?
A: Its TGI is 5400 nM.

Q: What about the GI50 (HCT-116 colon) of the same molecule?
A: Its GI50 is 732 nM.

Q: And the TGI (HCT-116 colon)?
A: Its TGI is 2150 nM.

Q: And the GI50 (HCT-15 colon)?
A: Its GI50 is 561 nM.

Q: What about the TGI (HCT-15 colon) of the same molecule?
A: The TGI was 2130 nM.

Q: And the GI50 (HL-60(TB) leukemia)?
A: Its GI50 is 1890 nM.

Q: What about the TGI (HL-60(TB) leukemia) of the same molecule?
A: Its TGI is 4930 nM.

Q: What about the GI50 (HOP-92 NSCLC) of the same molecule?
A: Its GI50 is 1360 nM.

Q: And the TGI (HOP-92 NSCLC)?
A: The TGI was 4240 nM.

Q: What about the GI50 (HS 578T breast) of the same molecule?
A: The GI50 was 2100 nM.

Q: And the TGI (HS 578T breast)?
A: Its TGI is 5300 nM.

Q: And the GI50 (IGROV1 ovarian)?
A: The GI50 was 1290 nM.

Q: And the TGI (IGROV1 ovarian)?
A: The TGI was 3410 nM.

Q: And the GI50 (K-562 leukemia)?
A: The GI50 was 574 nM.

Q: What about the TGI (K-562 leukemia) of the same molecule?
A: The TGI was over 100000 nM.

Q: And the GI50 (KM12 colon)?
A: Its GI50 is 1470 nM.

Q: And the TGI (KM12 colon)?
A: The TGI was 3240 nM.

Q: What about the GI50 (LOX IMVI melanoma) of the same molecule?
A: Its GI50 is 1770 nM.

Q: And the TGI (LOX IMVI melanoma)?
A: The TGI was 3330 nM.

Q: What about the GI50 (M14 melanoma) of the same molecule?
A: The GI50 was 1900 nM.

Q: What about the TGI (M14 melanoma) of the same molecule?
A: Its TGI is 3860 nM.

Q: What about the GI50 (MALME-3M melanoma) of the same molecule?
A: The GI50 was 2220 nM.

Q: And the TGI (MALME-3M melanoma)?
A: The TGI was 5690 nM.

Q: And the GI50 (MCF7 breast)?
A: The GI50 was 1880 nM.

Q: And the TGI (MCF7 breast)?
A: The TGI was 4510 nM.

Q: What about the GI50 (MDA-MB-435) of the same molecule?
A: The GI50 was 1590 nM.

Q: What about the TGI (MDA-MB-435) of the same molecule?
A: Its TGI is 3050 nM.

Q: And the GI50 (MOLT-4 leukemia)?
A: The GI50 was 1470 nM.

Q: What about the TGI (MOLT-4 leukemia) of the same molecule?
A: The TGI was 4020 nM.

Q: What about the GI50 (NCI-H226 lung) of the same molecule?
A: The GI50 was 1880 nM.

Q: And the TGI (NCI-H226 lung)?
A: The TGI was 4930 nM.

Q: What about the GI50 (NCI-H23 lung) of the same molecule?
A: The GI50 was 1760 nM.

Q: What about the TGI (NCI-H23 lung) of the same molecule?
A: Its TGI is 4540 nM.

Q: What about the GI50 (NCI-H460 lung) of the same molecule?
A: Its GI50 is 2220 nM.

Q: What about the TGI (NCI-H460 lung) of the same molecule?
A: Its TGI is 4960 nM.

Q: And the GI50 (NCI-H522 lung)?
A: Its GI50 is 1510 nM.

Q: And the TGI (NCI-H522 lung)?
A: The TGI was 3430 nM.

Q: What about the GI50 (NCI/ADR-RES ovarian) of the same molecule?
A: The GI50 was 1800 nM.

Q: What about the TGI (NCI/ADR-RES ovarian) of the same molecule?
A: Its TGI is 6170 nM.

Q: What about the GI50 (PC-3 prostate) of the same molecule?
A: The GI50 was 1260 nM.

Q: What about the TGI (PC-3 prostate) of the same molecule?
A: The TGI was 4810 nM.

Q: What about the GI50 (RPMI-8226 leukemia) of the same molecule?
A: The GI50 was 1010 nM.

Q: And the TGI (RPMI-8226 leukemia)?
A: Its TGI is 4720 nM.

Q: And the GI50 (SF-268 CNS)?
A: The GI50 was 1910 nM.

Q: And the TGI (SF-268 CNS)?
A: Its TGI is 4420 nM.

Q: And the GI50 (SF-295 CNS)?
A: The GI50 was 1720 nM.

Q: What about the TGI (SF-295 CNS) of the same molecule?
A: The TGI was 3360 nM.

Q: And the GI50 (SF-539 CNS)?
A: Its GI50 is 1820 nM.

Q: What about the TGI (SF-539 CNS) of the same molecule?
A: The TGI was 3420 nM.

Q: What about the GI50 (SK-MEL-2 melanoma) of the same molecule?
A: Its GI50 is 2060 nM.

Q: And the TGI (SK-MEL-2 melanoma)?
A: Its TGI is 4780 nM.

Q: What about the GI50 (SK-MEL-28 melanoma) of the same molecule?
A: The GI50 was 2010 nM.

Q: And the TGI (SK-MEL-28 melanoma)?
A: The TGI was 4070 nM.

Q: What about the GI50 (SK-MEL-5 melanoma) of the same molecule?
A: Its GI50 is 1560 nM.

Q: What about the TGI (SK-MEL-5 melanoma) of the same molecule?
A: Its TGI is 3000 nM.

Q: What about the GI50 (SK-OV-3 ovarian) of the same molecule?
A: The GI50 was 3250 nM.

Q: What about the TGI (SK-OV-3 ovarian) of the same molecule?
A: Its TGI is 7790 nM.

Q: And the GI50 (SN12C renal)?
A: Its GI50 is 1980 nM.

Q: What about the TGI (SN12C renal) of the same molecule?
A: The TGI was 5750 nM.

Q: What about the GI50 (SNB-19 CNS) of the same molecule?
A: Its GI50 is 1370 nM.

Q: And the TGI (SNB-19 CNS)?
A: Its TGI is 2950 nM.

Q: And the GI50 (SNB-75 CNS)?
A: The GI50 was 1570 nM.

Q: And the TGI (SNB-75 CNS)?
A: The TGI was 4070 nM.

Q: What about the GI50 (SR leukemia) of the same molecule?
A: Its GI50 is 1820 nM.

Q: What about the TGI (SR leukemia) of the same molecule?
A: The TGI was over 100000 nM.

Q: What about the GI50 (T-47D breast) of the same molecule?
A: The GI50 was 1210 nM.

Q: And the TGI (T-47D breast)?
A: Its TGI is 5020 nM.

Q: What about the GI50 (TK-10 renal) of the same molecule?
A: Its GI50 is 1270 nM.

Q: And the TGI (TK-10 renal)?
A: The TGI was 4330 nM.

Q: And the GI50 (U251 CNS)?
A: Its GI50 is 1190 nM.

Q: And the TGI (U251 CNS)?
A: Its TGI is 2830 nM.

Q: What about the GI50 (UACC-257 melanoma) of the same molecule?
A: Its GI50 is 2510 nM.

Q: And the TGI (UACC-257 melanoma)?
A: Its TGI is 6350 nM.

Q: And the GI50 (UACC-62 melanoma)?
A: The GI50 was 1430 nM.

Q: What about the TGI (UACC-62 melanoma) of the same molecule?
A: The TGI was 2920 nM.

Q: What about the GI50 (UO-31 renal) of the same molecule?
A: Its GI50 is 1730 nM.

Q: What about the TGI (UO-31 renal) of the same molecule?
A: The TGI was 5130 nM.
